In patent US12552811B2, “Immunosuppressant, and preparation method therefor and use thereof” (Abbisko Therapeutics Co., Ltd., priority 2020, dated 2026) one finds EC50 data, which are given here for 13 molecules.

A word on the EC50: it is the midpoint of the concentration-response curve.

The nature of the assay: Jurkat reporter gene cellular assay. The format is cell-based. As to conditions: Homo sapiens; Jurkat/NF-κB-luc/PD1 + Raji-PD-L1 coculture, OKT3 1 μg/mL, 6 hrs, activation fold; read-out: Cell Activity EC50. The procedure:
The effect of compounds of the examples of the present invention and positive compounds on the interaction between PD-1 and PD-L1 expressed on cell surfaces, and the related influence on T cell functions, were determined by a Jurkat reporter gene cellular assay.
Briefly, the reporter gene plasmid of NF-κB-luc and the plasmid of human PD-1 were transfected into Jurkat cells to establish a stably transfected cell line capable of stably expressing both PD-1 and NF-κB-Luc reporter genes; the expression level of PD-1 on the cell surface was confirmed by flow cytometry; and the expression of the reporter gene was confirmed via the response of the reporter gene stimulated by OKT-3 and Raiji cells.
In addition, the plasmid of human PD-L1 was transfected into Raji cells to obtain a cell line capable of stably expressing PD-L1. Jurkat/NF-κB-luc/PD1 cells and Raji-PD-L1 cells were then cocultured and stimulated with OKT-3. On this basis, the compounds were added, and the enhancement of the signal pathway of T cell activation by the inhibitory effect of the compounds on the interaction between PD-1 and PD-L1 was evaluated by readings of reporter gene responses. The specific experimental process was as follows: • 1) 30 μL of compound or antibody solution was added to each well of a white 96-well plate (coming, 3610) at different diluted concentrations, and 10 μL of OKT3 (Biolegend, 317326) was then added (the final concentration of OKT3: 1 μg/mL); • 2) 20 μL of Raji-PD-L1 cell suspension was added to each well with 5*10^4 cells for each well, and was incubated in an incubator for 20 min: • 3) 20 μL of Jurkat/NF-κb-luc/PD-1 cell suspension was added to each well with 5*10^4 cells for each well, and well mixed, and 6 hrs later, Bright-glo (Promega, E2620) was applied and plates were read on Envision; • 4) The reading of each well treated with the compound was compared with the reading of each well treated with DMSO to obtain the activation fold of the compound; • 5) EC50 values of compounds and positive compounds of the examples of the present invention were determined by non-linear regression analysis of activation folds at different compound concentrations.

SMILES strings stand for the structures.

`Cn1c(C(=O)Nc2cccc(-c3cccc(NC(=O)c4cc5c(cn4)CN(C4CCCC4)CC5)c3Cl)c2Cl)nc2c1CCN(CCC13CCC(C(=O)O)(CC1)C3)C2` [Example 64, 4-(2-(2-((2,2′-dichloro-3′-(7-cyclopentyl-5,6,7,8-tetrahydro-2,7-naphthyridine-3-carboxamido)-[1,1′-biphenyl]-3-yl)carbamoyl)-1-methyl-1,4,6,7-tetrahydro-5H-imidazo[4,5-c]pyridin-5-yl)ethyl)bicyclo [2.2.1]heptane-1-carboxylic acid]: the half-maximal effective concentration (EC50) was found to be 155 nM. The figure for `Cn1c(C(=O)Nc2cccc(-c3cccc(NC(=O)c4cc5c(cn4)CN(C4CCC(C)(C(=O)O)CC4)CC5)c3Cl)c2Cl)nc2c1CCN(CCC13CCC(C(=O)O)(CC1)C3)C2` (stereo not shown) [Example 65, 4-(2-(2-((3′-(7-(4-carboxy-4-methylcyclohexyl)-5,6,7,8-tetrahydro-2,7-naphthyridine-3-carboxamido)-2,2′-dichloro-[1,1′-biphenyl]-3-yl)carbamoyl)-1-methyl-1,4,6,7-tetrahydro-5H-imidazo[4,5-c]pyridin-5-yl)ethyl)bicyclo[2.2.1]heptane-1-carboxylic acid] is 122 nM; for `CC(C)N1CCc2cc(C(=O)Nc3cccc(-c4cccc(NC(=O)c5cc6c(cn5)CN(C(C)C)CC6)c4Cl)c3Cl)ncc2C1` [Example 66] it is greater than 10000 nM; for `CC(C)N1CCc2cc(C(=O)Nc3cccc(-c4cccc(NC(=O)c5cc6c(cn5)CN(CCC57CCC(C(=O)O)(CC5)C7)CC6)c4Cl)c3Cl)ncc2C1` [Example 67, 4-(2-(6-((2,2′-dichloro-3′-(7-isopropyl-5,6,7,8-tetrahydro-2,7-naphthyridine-3-carboxamido)-[1,1′-biphenyl]-3-yl)carbamoyl)-3,4-dihydro-2,7-naphthyridin-2(1H)-yl)ethyl)bicycio[2.2.1]heptane-1-carboxylic acid] it is 1660 nM. The figure for `CC(C)N1CCc2cc(C(=O)Nc3cccc(-c4cccc(NC(=O)c5ccc6c(n5)CN(CCC57CCC(C(=O)O)(CC5)C7)CC6)c4Cl)c3Cl)ncc2C1` [Example 68, 4-(2-(2-((2,2′-dichloro-3′-(7-isopropyl-5,6,7,8-tetrahydro-2,7-yridine-3-carboxamido)-[1,1′-biphenyl]-3-yl)carbamoyl)-5,8-dihydro-1,7-naphthyridin-7(6H)-yl)ethyl)bicyclo[2.2.1]heptane-1-carboxylic acid] is 178 nM.

Take `CC(C)N1CCc2cc(C(=O)Nc3cccc(-c4cccc(NC(=O)c5ccc6c(n5)CCN(CCC57CCC(C(=O)O)(CC5)C7)C6)c4Cl)c3Cl)ncc2C1` [Example 69, 4-(2-(2-((2,2′-dichloro-3′-(7-isopropyl-5,6,7,8-tetrahydro-2,7-naphthyridine-3-carboxamido)-[1,1′-biphenyl]-3-yl)carbamoyl)-7,8-dihydro-1,6-naphthyridin-6(5H)-yl)ethyl)bicyclo[2.2.1]heptane-1-carboxylic acid]: the EC50 is 381 nM.

As for `C[C@@H](O)CN1CCc2cc(/C(F)=C/c3cccc(-c4cccc(Nc5nccc6cc(CN[C@H](CO)C(=O)O)cnc56)c4Cl)c3Cl)ncc2C1` [Example 70, ((8-((2,2′-dichloro-3′-((Z)-2-fluoro-2-(7-((R)-2-hydroxypropyl)-5,6,7,8-tetrahydro-2,7-naphthyridin-3-yl)vinyl)-[1,1′-biphenyl]-3-yl)amino)-1,7-naphthyridin-3-yl)methyl)-D-serine], the EC50 turned out to be 946 nM. As for `CC(C)N1CCc2cc(/C(F)=C/c3cccc(-c4cccc(Nc5nccc6cc(CN[C@H](CO)C(=O)O)cnc56)c4Cl)c3Cl)ncc2C1` [Example 71, (Z)-((8-((2,2′-dichloro-3′-(2-fluoro-2-(7-isopropyl-5,6,7,8-tetrahydro-2,7-naphthyridin-3-yl)vinyl)-[1,1′-biphenyl]-3-yl)amino)-1,7-naphthyridin-3-yl)methyl)-D-serine], the figure is 772 nM.

Take `CCOC(=O)[C@@H](CO)NCc1cnc2c(Nc3cccc(-c4cccc(/C=C(\F)c5cc6c(cn5)CN(C[C@@H](C)O)CC6)c4Cl)c3Cl)nccc2c1` [Example 72, ethyl ((8-((2,2′-dichloro-3′-((Z)-2-fluoro-2-(7-((R)-2-hydroxypropyl)-5,6,7,8-tetrahydro-2,7-naphthyridin-3-yl)vinyl)-[1,1′-biphenyl]-3-yl)amino)-1,7-naphthyridin-3-yl)methyl)-D-serinate]: the half-maximal effective concentration (EC50) came to 1430 nM.

For `CCOC(=O)[C@@H](CO)NCc1cnc2c(Nc3cccc(-c4cccc(/C=C(\F)c5cc6c(cn5)CN(C(C)C)CC6)c4Cl)c3Cl)nccc2c1` [Example 73, ethyl (Z)-((8-((2,2′-dichloro-3′-(2-fluoro-2-(7-isopropyl-5,6,7,8-tetrahydro-2,7-naphthyridin-3-yl)vinyl)-[1,1′-biphenyl]-3-yl)amino)-1,7-naphthyridin-3-yl)methyl)-D-serinate], the concentration giving a half-maximal response (EC50) worked out at 7640 nM.

Regarding `Cc1c(/C=C(\F)c2cc3c(cn2)CN(CCC24CCC(C(=O)O)(CC2)C4)CC3)cccc1-c1cccc(Nc2nccc3cc(CNC[C@@H]4CCC(=O)N4)cnc23)c1C` [Example 74, (S,Z)-4-(2-(6-(2-(2,2′-dimethyl-3′-((3-((((5-oxopyrrolidin-2-yl)methyl)amino)methyl)-1,7-naphthyridin-8-yl)amino)-[1,1′-biphenyl]-3-yl)-1-fluorovinyl)-3,4-dihydro-2,7-naphthyridin-2(1H)-yl)ethyl)bicyclo [2.2.1]heptane-1-carboxylic acid], the 50% effective concentration (EC50) was 1400 nM.

Consider `O=C1CC[C@@H](CNCc2cnc3c(Nc4cccc(-c5cccc(/C=C(\F)c6cc7c(cn6)CN(CCC68CCC(C(=O)O)(CC6)C8)CC7)c5Cl)c4Cl)nccc3c2)N1` [Example 75, (S,Z)-4-(2-(6-(2-(2,2′-dichloro-3′-((3-((((5-oxopyrrolidin-2-yl)methyl)amino)methyl)-1,7-naphthyridin-8-yl)amino)-[1,1′-biphenyl]-3-yl)-1-fluorovinyl)-3,4-dihydro-2,7-naphthyridin-2(1H)-yl)ethyl)bicyclo [2.2.1]heptane-1-carboxylic acid], for which the 50% effective concentration (EC50) came out at 1130 nM. On to `O=C1CC[C@@H](CNCc2cnc3c(Nc4cccc(-c5cccc(NC(=O)c6cc7c(cn6)CN(CC68CCC(C(=O)O)(CC6)C8)CC7)c5Cl)c4Cl)nccc3c2)N1` [Example 78, (S)-4-((6-((2,2′-dichloro-3′-((3-((((5-oxopyrrolidin-2-yl)methyl)amino)methyl)-1,7-naphthyridin-8-yl)amino)-[1,1′-biphenyl]-3-yl)carbamoyl)-3,4-dihydro-2,7-naphthyridin-2(1H)-yl)methyl)bicyclo[2.2.1] heptane-1-carboxylic acid], for which the concentration for a half-maximal effect (EC50) came to 504 nM.
